Assay results: ChEMBL document CHEMBL1201861, “Genomics of Drug Sensitity in Cancer screening data, Wellcome Trust Sanger Institute”

Key:
LP-1 = assay: cells; assay type: functional, cell-based, Homo sapiens; settings: Homo sapiens, LP-1;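 note: growth inhibition of human LP-1 cells, with the read-out taken from a cell viability assay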
Description: SANGER: Inhibition of human LP-1 cell growth in a cell viability assay.

NCI-H1436 = assay: cells; assay type: functional, cell-based, Homo sapiens; settings: Homo sapiens, NCI-H1436;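 note: growth suppression of human NCI-H1436 cells, determined with a cell viability readout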
Description: SANGER: Inhibition of human NCI-H1436 cell growth in a cell viability assay.

HT-3 = assay: cells; assay type: functional, cell-based, Homo sapiens; settings: Homo sapiens, HT-3;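 note: growth inhibition measured with a cell viability readout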
Description: SANGER: Inhibition of human HT-3 cell growth in a cell viability assay.

K052 = assay: cells; assay type: functional, cell-based, Homo sapiens; settings: Homo sapiens, K052;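 note: Read-out from a cell viability assay, IC50 reflecting suppression of K052 cell growth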
Description: SANGER: Inhibition of human K052 cell growth in a cell viability assay.

PC-3 = assay: cells; assay type: functional, cell-based, Homo sapiens; settings: Homo sapiens, PC-3
Description: SANGER: Inhibition of human PC-3 cell growth in a cell viability assay.

HuCCT-1 = assay: cells; assay type: functional, cell-based, Homo sapiens, HuCCT1; settings: Homo sapiens, HuCCT-1;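 note: growth inhibition of HuCCT-1 cells, read out by a cell viability assay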
Description: SANGER: Inhibition of human HuCCT1 cell growth in a cell viability assay.

OE33 = assay: cells; assay type: functional, cell-based, Homo sapiens; settings: Homo sapiens, OE33;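 note: growth inhibition of human OE33 cells, measured by a cell viability assay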
Description: SANGER: Inhibition of human OE33 cell growth in a cell viability assay.

ST486 = assay: SANGER: Inhibition of human ST486 cell growth in a cell viability assay.; assay type: functional, cell-based; settings: Homo sapiens, ST486
HCC1954 = assay: cells; assay type: functional, cell-based, Homo sapiens; settings: Homo sapiens, HCC1954;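 note: growth inhibition of human HCC1954 cells, read out with a cell viability assay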
Description: SANGER: Inhibition of human HCC1954 cell growth in a cell viability assay.

SW1573 = assay: cells; assay type: functional, cell-based, Homo sapiens; settings: Homo sapiens, SW1573;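 note: growth inhibition of SW1573 cells, read out with a cell viability assay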
Description: SANGER: Inhibition of human SW1573 cell growth in a cell viability assay.

MHH-CALL-2 = assay: cells; assay type: functional, cell-based, Homo sapiens; settings: Homo sapiens, MHH-CALL-2;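 note: growth inhibition of the cell line, read out in a cell viability assay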
Description: SANGER: Inhibition of human MHH-CALL-2 cell growth in a cell viability assay.

SW837 = assay: cells; assay type: functional, cell-based, Homo sapiens; settings: Homo sapiens, SW837;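 note: growth inhibition of SW837 cells, determined with a cell viability assay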
Description: SANGER: Inhibition of human SW837 cell growth in a cell viability assay.

Raji = assay: cells; assay type: functional, cell-based, Homo sapiens; settings: Homo sapiens, Raji;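 note: cell viability assay measuring inhibition of Raji cell growth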
Description: SANGER: Inhibition of human Raji cell growth in a cell viability assay.

COLO-679 = assay: cells; assay type: functional, cell-based, Homo sapiens; settings: Homo sapiens, COLO-679
Description: SANGER: Inhibition of human COLO-679 cell growth in a cell viability assay.

KYSE-140 = assay: cells; assay type: functional, cell-based, Homo sapiens; settings: Homo sapiens, KYSE-140;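 note: cell viability assay measuring growth inhibition in human KYSE-140 cells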
Description: SANGER: Inhibition of human KYSE-140 cell growth in a cell viability assay.

CAL-33 = assay: cells; assay type: functional, cell-based, Homo sapiens; settings: Homo sapiens, CAL-33;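 note: growth inhibition of CAL-33 cells, read out with a cell viability assay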
Description: SANGER: Inhibition of human CAL-33 cell growth in a cell viability assay.

DG-75 = assay: cells; assay type: functional, cell-based, Homo sapiens; settings: Homo sapiens, DG-75;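 note: growth inhibition of DG-75 cells, read out with a cell viability assay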
Description: SANGER: Inhibition of human DG-75 cell growth in a cell viability assay.

BL-41 = assay: cells; assay type: functional, cell-based, Homo sapiens; settings: Homo sapiens, BL-41;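 note: growth inhibition of human BL-41 cells, read out with a cell viability assay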
Description: SANGER: Inhibition of human BL-41 cell growth in a cell viability assay.

NCI-H292 = assay: cells; assay type: functional, cell-based, Homo sapiens; settings: Homo sapiens, NCI-H292;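 note: growth inhibition of NCI-H292 cells, read out with a cell viability assay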
Description: SANGER: Inhibition of human NCI-H292 cell growth in a cell viability assay.

NCI-H1882 = assay: cells; assay type: functional, cell-based, Homo sapiens; settings: Homo sapiens, NCI-H1882;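 note: growth inhibition of the cell line, determined with a viability assay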
Description: SANGER: Inhibition of human NCI-H1882 cell growth in a cell viability assay.

SW-620 = assay: cells; assay type: functional, cell-based, Homo sapiens; settings: Homo sapiens, SW-620;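 note: growth inhibition of human SW-620 cells, measured by a cell viability assay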
Description: SANGER: Inhibition of human SW620 cell growth in a cell viability assay.

SR = assay: cells; assay type: functional, cell-based, Homo sapiens; settings: Homo sapiens, SR
Description: SANGER: Inhibition of human SR cell growth in a cell viability assay.

PF-382 = assay: cells; assay type: functional, cell-based, Homo sapiens; settings: Homo sapiens, PF-382
Description: SANGER: Inhibition of human PF-382 cell growth in a cell viability assay.

COR-L279 = assay: SANGER: Inhibition of human COR-L279 cell growth in a cell viability assay.; assay type: functional, cell-based; settings: Homo sapiens, COR-L279
SAS = assay: cells; assay type: functional, cell-based, Homo sapiens; settings: Homo sapiens, SAS;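 note: growth inhibition of SAS cells, read out with a cell viability assay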
Description: SANGER: Inhibition of human SAS cell growth in a cell viability assay.

COLO-678 = assay: cells; assay type: functional, cell-based, Homo sapiens; settings: Homo sapiens, COLO-678
Description: SANGER: Inhibition of human COLO-678 cell growth in a cell viability assay.

HuP-T3 = assay: cells; assay type: functional, cell-based, Homo sapiens; settings: Homo sapiens, HuP-T3;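 note: HuP-T3 cell growth inhibition, read out with a cell viability assay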
Description: SANGER: Inhibition of human HuP-T3 cell growth in a cell viability assay.

HN = assay: cells; assay type: functional, cell-based, Homo sapiens; settings: Homo sapiens, HN
Description: SANGER: Inhibition of human HN cell growth in a cell viability assay.

REH = assay: cells; assay type: functional, cell-based, Homo sapiens; settings: Homo sapiens, REH;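 note: growth inhibition of REH cells determined with a cell viability read-out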
Description: SANGER: Inhibition of human REH cell growth in a cell viability assay.

NCI-H810 = assay: cells; assay type: functional, cell-based, Homo sapiens; settings: Homo sapiens, NCI-H810;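 note: IC50 reflects inhibition of cancer cell line growth, read out with a cell viability assay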
Description: SANGER: Inhibition of human NCI-H810 cell growth in a cell viability assay.

NCI-H1417 = assay: cells; assay type: functional, cell-based, Homo sapiens; settings: Homo sapiens, NCI-H1417;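 note: human NCI-H1417 cells, growth inhibition determined with a cell viability readout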
Description: SANGER: Inhibition of human NCI-H1417 cell growth in a cell viability assay.

KARPAS-422 = assay: cells; assay type: functional, cell-based, Homo sapiens; settings: Homo sapiens, KARPAS-422
Description: SANGER: Inhibition of human KARPAS-422 cell growth in a cell viability assay.

OVCAR-8 = assay: cells; assay type: functional, cell-based, Homo sapiens; settings: Homo sapiens, OVCAR-8;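 note: growth inhibition of human OVCAR-8 cells, read out by a cell viability assay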
Description: SANGER: Inhibition of human OVCAR-8 cell growth in a cell viability assay.

LoVo = assay: cells; assay type: functional, cell-based, Homo sapiens; settings: Homo sapiens, LoVo;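 note: growth inhibition of human LoVo cells, read out with a cell viability assay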
Description: SANGER: Inhibition of human LoVo cell growth in a cell viability assay.

MDA-MB-134-VI = assay: cells; assay type: functional, cell-based, Homo sapiens; settings: Homo sapiens, MDA-MB-134-VI
Description: SANGER: Inhibition of human MDA-MB-134-VI cell growth in a cell viability assay.

RPMI-7951 = assay: cells; assay type: functional, cell-based, Homo sapiens; settings: Homo sapiens, RPMI-7951
Description: SANGER: Inhibition of human RPMI-7951 cell growth in a cell viability assay.

UACC-812 = assay: cells; assay type: functional, cell-based, Homo sapiens; settings: Homo sapiens, UACC-812
Description: SANGER: Inhibition of human UACC-812 cell growth in a cell viability assay.

NCI-H1651 = assay: cells; assay type: functional, cell-based, Homo sapiens; settings: Homo sapiens, NCI-H1651;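 note: Read-out is a cell viability assay, with IC50 expressing inhibition of NCI-H1651 cell growth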
Description: SANGER: Inhibition of human NCI-H1651 cell growth in a cell viability assay.

CWR22R = assay: cells; assay type: functional, cell-based, Homo sapiens; settings: Homo sapiens, 22Rv1;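 note: growth inhibition of 22Rv1 cells, read out with a cell viability assay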
Description: SANGER: Inhibition of human 22RV1 cell growth in a cell viability assay.

BXPC-3 = assay: cells; assay type: functional, cell-based, Homo sapiens; settings: Homo sapiens, BXPC-3;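 note: growth inhibition of human BxPC-3 cells, read out by a cell viability assay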
Description: SANGER: Inhibition of human BxPC-3 cell growth in a cell viability assay.

KYSE-510 = assay: cells; assay type: functional, cell-based, Homo sapiens; settings: Homo sapiens, KYSE-510;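 note: cell viability readout used to measure how strongly growth of the cell line is suppressed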
Description: SANGER: Inhibition of human KYSE-510 cell growth in a cell viability assay.

OE19 = assay: cells; assay type: functional, cell-based, Homo sapiens; settings: Homo sapiens, OE19;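 note: growth inhibition of OE19 cells, measured through a cell viability read-out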
Description: SANGER: Inhibition of human OE19 cell growth in a cell viability assay.

HCC1599 = assay: cells; assay type: functional, cell-based, Homo sapiens; settings: Homo sapiens, HCC1599;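 note: growth inhibition of HCC1599 cells, read out in a cell viability assay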
Description: SANGER: Inhibition of human HCC1599 cell growth in a cell viability assay.

769-P = assay: cells; assay type: functional, cell-based, Homo sapiens; settings: Homo sapiens, 769-P
Description: SANGER: Inhibition of human 769-P cell growth in a cell viability assay.

A-427 = assay: cells; assay type: functional, cell-based, Homo sapiens; settings: Homo sapiens, A-427;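 note: growth inhibition of human A-427 cells, read out by a cell viability assay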
Description: SANGER: Inhibition of human A427 cell growth in a cell viability assay.

HGC-27 = assay: cells; assay type: functional, cell-based, Homo sapiens; settings: Homo sapiens, HGC-27;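 note: growth inhibition of human HGC-27 cells, read out in a cell viability assay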
Description: SANGER: Inhibition of human HGC-27 cell growth in a cell viability assay.

NCI-H2196 = assay: cells; assay type: functional, cell-based, Homo sapiens; settings: Homo sapiens, NCI-H2196;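 note: cell viability assay used as the readout of growth inhibition in NCI-H2196 cells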
Description: SANGER: Inhibition of human NCI-H2196 cell growth in a cell viability assay.

`CCC/C=C/C=C/C(=O)O[C@H]1/C(=C/C(=O)OC)C[C@H]2C[C@H]([C@@H](C)O)OC(=O)C[C@H](O)C[C@@H]3C[C@H](OC(C)=O)C(C)(C)[C@](O)(C[C@@H]4C/C(=C/C(=O)OC)C[C@H](/C=C/C(C)(C)[C@]1(O)O2)O4)O3` [BRYOSTATIN 1] gave an IC50 (LP-1) of over 0.008 µM, an IC50 (NCI-H1436) of over 0.008 µM and an IC50 (HT-3) of over 0.008 µM. The IC50 (K052) was over 0.008 µM, the IC50 (PC-3) was over 0.008 µM and the IC50 (HuCCT-1) was over 0.008 µM. For the same molecule, the IC50 (OE33) was over 0.008 µM, the IC50 (ST486) was over 0.008 µM and the IC50 (HCC1954) was over 0.008 µM. For the same molecule, the IC50 (SW1573) was over 0.008 µM, the IC50 (MHH-CALL-2) was over 0.008 µM and the IC50 (SW837) was over 0.008 µM. The IC50 (Raji) was over 0.008 µM, the IC50 (COLO-679) was over 0.008 µM and the IC50 (KYSE-140) was over 0.008 µM. It also gave an IC50 (CAL-33) of over 0.008 µM, an IC50 (DG-75) of over 0.008 µM and an IC50 (BL-41) of over 0.008 µM. It also gave an IC50 (NCI-H292) of over 0.008 µM, an IC50 (NCI-H1882) of over 0.008 µM and an IC50 (SW-620) of over 0.008 µM. It also gave an IC50 (SR) of over 0.008 µM, an IC50 (PF-382) of over 0.008 µM and an IC50 (COR-L279) of over 0.008 µM. The IC50 (SAS) was over 0.008 µM, the IC50 (COLO-678) was over 0.008 µM and the IC50 (HuP-T3) was over 0.008 µM. It also gave an IC50 (HN) of over 0.008 µM, an IC50 (REH) of over 0.008 µM and an IC50 (NCI-H810) of over 0.008 µM. For the same molecule, the IC50 (NCI-H1417) was over 0.008 µM, the IC50 (KARPAS-422) was over 0.008 µM and the IC50 (OVCAR-8) was over 0.008 µM. The IC50 (LoVo) was over 0.008 µM, the IC50 (MDA-MB-134-VI) was over 0.008 µM and the IC50 (RPMI-7951) was over 0.008 µM. The IC50 (UACC-812) was over 0.008 µM, the IC50 (NCI-H1651) was over 0.008 µM and the IC50 (CWR22R) was over 0.008 µM. For the same molecule, the IC50 (BXPC-3) was over 0.008 µM, the IC50 (KYSE-510) was over 0.008 µM and the IC50 (OE19) was over 0.008 µM. The IC50 (HCC1599) was over 0.008 µM, the IC50 (769-P) was over 0.008 µM and the IC50 (A-427) was over 0.008 µM. The IC50 (HGC-27) was over 0.008 µM and the IC50 (NCI-H2196) was over 0.008 µM.
For `Cc1cc([N+](=O)[O-])ccc1NS(=O)(=O)c1cc(Cl)ccc1Cl`, the IC50 (LP-1) was 10.6 µM, the IC50 (NCI-H1436) was over 32 µM and the IC50 (HT-3) was over 32 µM. It also gave an IC50 (K052) of 14.2 µM, an IC50 (PC-3) of 8.12 µM and an IC50 (HuCCT-1) of 7.32 µM. The IC50 (OE33) was 9.49 µM, the IC50 (ST486) was 4.83 µM and the IC50 (HCC1954) was 3.62 µM. The IC50 (SW1573) was 9.54 µM, the IC50 (MHH-CALL-2) was 18.2 µM and the IC50 (SW837) was 4 µM. It also gave an IC50 (Raji) of 6.44 µM, an IC50 (COLO-679) of 2.4 µM and an IC50 (KYSE-140) of 4.58 µM. It also gave an IC50 (CAL-33) of 3.56 µM, an IC50 (DG-75) of over 32 µM and an IC50 (BL-41) of over 32 µM. The IC50 (NCI-H292) was 11.3 µM, the IC50 (NCI-H1882) was over 32 µM and the IC50 (SW-620) was 3.93 µM. For the same molecule, the IC50 (SR) was 4.95 µM, the IC50 (PF-382) was 7.73 µM and the IC50 (COR-L279) was over 32 µM. It also gave an IC50 (SAS) of over 32 µM, an IC50 (COLO-678) of 10.9 µM and an IC50 (HuP-T3) of 11.2 µM. The IC50 (HN) was over 32 µM, the IC50 (REH) was 11.5 µM and the IC50 (NCI-H810) was 1.25 µM. For the same molecule, the IC50 (NCI-H1417) was 23.2 µM, the IC50 (KARPAS-422) was 8.26 µM and the IC50 (OVCAR-8) was 4.26 µM. It also gave an IC50 (LoVo) of 2 µM, an IC50 (MDA-MB-134-VI) of over 32 µM and an IC50 (RPMI-7951) of 29.3 µM. The IC50 (UACC-812) was over 32 µM, the IC50 (NCI-H1651) was 3.94 µM and the IC50 (CWR22R) was 2.63 µM. It also gave an IC50 (BXPC-3) of 6.84 µM, an IC50 (KYSE-510) of 4.84 µM and an IC50 (OE19) of 3.78 µM. The IC50 (HCC1599) was 16.7 µM, the IC50 (769-P) was 6.73 µM and the IC50 (A-427) was 0.23 µM. The IC50 (HGC-27) was 4.03 µM and the IC50 (NCI-H2196) was over 32 µM.
